According to ChEMBL document CHEMBL1914323, “Tricyclic aminopyrimidine histamine H4 receptor antagonists” (Bioorg Med Chem Lett, 2011):
In brackets after ≈: the same amount, converted by molar mass. Activity calls are given as the source filed them. The calls are words filed in the database; no cut-off is given here.

Columns and labels:
Histamine H4 receptor [1] = molecular target: T1, Histamine H4 receptor (Homo sapiens, UniProt Q9H3N8); assay: Displacement of [3H]histamine from recombinant human histamine H4 receptor
T1 sequence (Q9H3N8 whole entry): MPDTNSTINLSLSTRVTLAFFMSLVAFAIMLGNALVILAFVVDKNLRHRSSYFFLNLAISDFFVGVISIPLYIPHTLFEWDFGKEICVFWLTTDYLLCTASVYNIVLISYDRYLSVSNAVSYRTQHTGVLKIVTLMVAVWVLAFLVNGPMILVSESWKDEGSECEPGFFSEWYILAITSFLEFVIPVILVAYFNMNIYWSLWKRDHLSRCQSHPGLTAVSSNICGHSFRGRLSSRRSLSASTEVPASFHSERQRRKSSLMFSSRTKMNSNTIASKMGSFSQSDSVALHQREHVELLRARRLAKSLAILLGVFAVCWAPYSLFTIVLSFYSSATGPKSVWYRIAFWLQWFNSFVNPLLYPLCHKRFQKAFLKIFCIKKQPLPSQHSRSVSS

[2] = Metabolic stability in human liver microsomes after 15 mins; format: ADME, Microsome; settings: read-out: Stability
Histamine H4 receptor [3] = molecular target: T1, Histamine H4 receptor; assay: Antagonist activity at recombinant human histamine H4 receptor; format: functional; settings: read-out: pA2 (converted)
[4] = Metabolic stability in rat liver microsomes after 15 mins; format: ADME, Microsome; settings: read-out: Stability
[5] = Clearance in dog at 2 mg/kg, iv; format: ADME, organism-based, Canis lupus familiaris; set-up: dose 2 mg/kg, route intravenous; settings: in vivo
[6] = Cmax in rat at 10 mg/kg, po; format: ADME, organism-based; set-up: dose 10 mg/kg, route oral; settings: in vivo
[7] = Half life in rat at 10 mg/kg, po; format: ADME, organism-based; set-up: dose 10 mg/kg, route oral; settings: in vivo
[8] = Oral bioavailability in rat at 10 mg/kg; format: ADME, organism-based; settings: in vivo
[9] = Clearance in rat at 2 mg/kg, iv; format: ADME, organism-based; set-up: dose 2 mg/kg, route intravenous; settings: in vivo
[10] = Oral bioavailability in dog at 10 mg/kg; format: ADME, organism-based, Canis lupus familiaris; settings: in vivo
[11] = Solubility of the compound at pH 7; format: physicochemical; settings: buffer
[12] = molecular target: T2, Voltage-gated inwardly rectifying potassium channel KCNH2 (Homo sapiens, UniProt Q12809); assay: Inhibition of human ERG by binding assay
T2 sequence (Q12809 whole entry): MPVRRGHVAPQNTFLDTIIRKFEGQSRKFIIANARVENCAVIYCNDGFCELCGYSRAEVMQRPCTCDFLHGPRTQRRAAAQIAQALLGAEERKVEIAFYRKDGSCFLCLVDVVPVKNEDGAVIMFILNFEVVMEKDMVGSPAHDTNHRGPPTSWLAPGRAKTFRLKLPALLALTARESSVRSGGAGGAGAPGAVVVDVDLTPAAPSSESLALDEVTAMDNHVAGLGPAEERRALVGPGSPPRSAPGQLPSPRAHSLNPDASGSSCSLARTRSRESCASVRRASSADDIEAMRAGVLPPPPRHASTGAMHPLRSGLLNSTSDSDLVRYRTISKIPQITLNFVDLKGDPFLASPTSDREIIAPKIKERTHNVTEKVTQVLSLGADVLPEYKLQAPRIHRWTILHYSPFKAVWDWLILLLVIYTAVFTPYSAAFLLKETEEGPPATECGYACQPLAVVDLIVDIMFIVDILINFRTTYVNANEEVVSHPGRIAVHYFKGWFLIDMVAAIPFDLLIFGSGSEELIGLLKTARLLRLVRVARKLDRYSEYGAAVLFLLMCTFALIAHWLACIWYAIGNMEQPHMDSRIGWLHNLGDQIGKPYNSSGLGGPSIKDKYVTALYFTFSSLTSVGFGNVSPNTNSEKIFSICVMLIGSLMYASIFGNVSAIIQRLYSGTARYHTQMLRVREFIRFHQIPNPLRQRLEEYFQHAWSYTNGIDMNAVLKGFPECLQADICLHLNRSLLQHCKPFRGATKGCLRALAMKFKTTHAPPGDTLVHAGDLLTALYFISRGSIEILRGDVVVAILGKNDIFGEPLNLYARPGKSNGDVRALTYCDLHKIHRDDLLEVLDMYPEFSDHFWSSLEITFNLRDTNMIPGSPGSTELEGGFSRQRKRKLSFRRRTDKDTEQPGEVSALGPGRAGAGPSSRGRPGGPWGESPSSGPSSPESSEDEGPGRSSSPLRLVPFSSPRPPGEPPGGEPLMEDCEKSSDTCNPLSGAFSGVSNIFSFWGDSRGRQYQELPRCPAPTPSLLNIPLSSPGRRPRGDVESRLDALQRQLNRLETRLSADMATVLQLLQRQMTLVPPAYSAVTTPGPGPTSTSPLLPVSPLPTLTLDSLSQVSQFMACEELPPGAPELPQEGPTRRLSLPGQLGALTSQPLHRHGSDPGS

[13] = Solubility of the compound at pH 2; format: physicochemical; settings: buffer
[14] = Metabolic stability in dog liver microsomes assessed as half life; format: ADME, Canis lupus familiaris, Microsome
[15] = Metabolic stability in human liver microsomes assessed as half life; format: ADME, Microsome
Mus musculus = assay: Antiinflammatory activity in BALB/c mouse asthma model assessed as inhibition of ovalbumin-induced eosinophil accumulation in lung lavage at 10 mg/kg, po BID 20 mins prior to each ovalbumin challenge for 4 times measured after 24 hrs by coulter counter assay; format: functional, organism-based; set-up: dose 10 mg/kg
[16] = Volume of distribution at steady state in rat at 2 mg/kg, iv; format: ADME, organism-based; set-up: dose 2 mg/kg, route intravenous; settings: in vivo, read-out: Vdss
[17] = Half life in dog at 10 mg/kg, po; format: ADME, organism-based, Canis lupus familiaris; set-up: dose 10 mg/kg, route oral; settings: in vivo
[18] = Cmax in dog at 10 mg/kg, po; format: ADME, organism-based, Canis lupus familiaris; set-up: dose 10 mg/kg, route oral; settings: in vivo
[19] = Apparent permeability from basolateral to apical side of human Caco2 cells; format: ADME, cell-based; settings: Caco-2
[20] = Volume of distribution at steady state in dog at 2 mg/kg, iv; format: ADME, organism-based, Canis lupus familiaris; set-up: dose 2 mg/kg, route intravenous; settings: in vivo, read-out: Vdss
[21] = molecular target: T2, Voltage-gated inwardly rectifying potassium channel KCNH2; assay: Inhibition of human ERG by patch clamp technique
[22] = AUC in dog at 2 mg/kg, iv; format: ADME, organism-based, Canis lupus familiaris; set-up: dose 2 mg/kg, route intravenous; settings: plasma
[23] = Apparent permeability from apical to basolateral side of human Caco2 cells; format: ADME, cell-based; settings: Caco-2
[24] = Half life in rat at 2 mg/kg, iv; format: ADME, organism-based; set-up: dose 2 mg/kg, route intravenous; settings: in vivo
[25] = Fraction unbound in human plasma; format: ADME, cell-free
[26] = AUC in rat at 2 mg/kg, iv; format: ADME, organism-based; set-up: dose 2 mg/kg, route intravenous; settings: plasma
[27] = Half life in dog at 2 mg/kg, iv; format: ADME, organism-based, Canis lupus familiaris; set-up: dose 2 mg/kg, route intravenous; settings: in vivo
[28] = Fraction unbound in mouse plasma; format: ADME, cell-free
[29] = Metabolic stability in rat liver microsomes assessed as half life; format: ADME, Microsome

CN1CCN(c2nc(N)nc3c4cc(Cl)ccc4[s+]([O-])c23)CC1 (stereo not drawn)
Ki (Histamine H4 receptor [1]): 1.28 µM

Nc1nc(N2CCNCC2)c2oc3c(Cl)cc(Cl)cc3c2n1
Ki (Histamine H4 receptor [1]): 0.138 µM

Cc1csc2c(N3CCN(C)CC3)ncnc12
Ki (Histamine H4 receptor [1]): > 0.205 µM

Nc1nc(N2C[C@H]3CCCN[C@H]3C2)c2oc3ccc(Cl)cc3c2n1
Ki (Histamine H4 receptor [1]): 0.0047 µM

CN1CCN(c2nc(N)nc3c2oc2ccc(Cl)cc23)CC1
remaining at […] [2]: 84% | Kb (Histamine H4 receptor [3]): 0.002 µM | remaining at […] [4]: 0.3% | Ki (Histamine H4 receptor [1]): 0.0001 µM

Nc1nc(N2CC(N)C2)c2oc3ncc(Cl)cc3c2n1
Ki (Histamine H4 receptor [1]): 0.613 µM

Nc1nc(N2C[C@@H]3C[C@H]2CN3)c2oc3ccccc3c2n1
Ki (Histamine H4 receptor [1]): 0.196 µM

NCC1CN(c2nc(N)nc3c2oc2ncc(Cl)cc23)C1
Ki (Histamine H4 receptor [1]): 0.376 µM

CN[C@@H]1CCN(c2nc(N)nc3c2oc2ncc(Cl)cc23)C1
clearance [5]: 21.7 mL/min/kg | Cmax [6]: 1200 nM | half-life [7]: 6.8 h | bioavailability [8]: 91% | clearance [9]: 68.3 mL/min/kg | Kb (Histamine H4 receptor [3]): 0.00501 µM | bioavailability [10]: 91% | solubility [11]: > 0.4 µM | IC50 [12]: > 10 µM | solubility [13]: > 0.4 µM | half-life [14]: > 3 h | half-life [15]: > 3 h | inhibition (Mus musculus): Active | Vd [16]: 6.9 L/kg | half-life [17]: 10.5 h | Cmax [18]: 1800 nM | Papp B→A [19]: 22 ×10⁻⁶ cm/s | Vd [20]: 16.5 L/kg | INH [21]: > 3 µM | AUC [22]: 5.2 µM·h | Papp A→B [23]: 23 ×10⁻⁶ cm/s | half-life [24]: 1.2 h | fraction unbound [25]: 0.43 | AUC [26]: 1.6 µM·h | half-life [27]: 9.7 h | fraction unbound [28]: 0.18 | Ki (Histamine H4 receptor [1]): 0.0094 µM | half-life [29]: > 1.02 h

Nc1nc(N2CC[C@@H](N)C2)c2oc3ncc(Cl)cc3c2n1
Ki (Histamine H4 receptor [1]): 0.016 µM

CN1CCCN(c2nc(N)nc3c2oc2ncc(Cl)cc23)CC1
Ki (Histamine H4 receptor [1]): 0.037 µM

CN1CCN(c2nc(N)nc3c2sc2cc(Cl)ccc23)CC1
Ki (Histamine H4 receptor [1]): 0.018 µM

CN1CCN(c2ncnc3c2oc2ccc(Cl)cc23)CC1
Kb (Histamine H4 receptor [3]): 0.00251 µM | solubility [11]: 0.053 µM (≈ 0.016 µg/mL) | half-life [15]: < 0.0833 h | Ki (Histamine H4 receptor [1]): 0.0047 µM | half-life [29]: < 0.0833 h

CN[C@@H]1CCN(c2nc(N)nc3c2sc2ccc(Cl)cc23)C1
Ki (Histamine H4 receptor [1]): 0.01 µM

CN[C@@H]1CCN(c2nc(N)nc3c2sc2cc(C(F)(F)F)ccc23)C1
Ki (Histamine H4 receptor [1]): 0.125 µM

CN[C@@H]1CCN(c2nc(N)nc3c2sc2ccc(F)cc23)C1
Ki (Histamine H4 receptor [1]): 0.031 µM

CN[C@H]1CCN(c2nc(N)nc3c2sc2ccc(Br)cc23)C1
Ki (Histamine H4 receptor [1]): 0.065 µM

CN[C@H]1CCN(c2nc(N)nc3c2sc2ccc(Cl)cc23)C1
Ki (Histamine H4 receptor [1]): 0.076 µM

Nc1nc(N2CC3CCNC3C2)c2oc3ncc(Cl)cc3c2n1 (stereo not drawn)
Ki (Histamine H4 receptor [1]): 0.139 µM

CN1CCN(c2nc(N)nc3c2oc2ccc(F)c(F)c23)CC1
Ki (Histamine H4 receptor [1]): 0.156 µM

NC[C@H]1CCN(c2nc(N)nc3c2oc2ccc(Cl)cc23)C1
Ki (Histamine H4 receptor [1]): 0.137 µM

Nc1nc(N2C[C@@H]3CCCN[C@@H]3C2)c2oc3ccc(Cl)cc3c2n1
Ki (Histamine H4 receptor [1]): 0.021 µM

Nc1nc(N2C[C@@H]3C[C@H]2CN3)c2oc3cccc(Cl)c3c2n1
Ki (Histamine H4 receptor [1]): 0.443 µM

CN1CCN(c2ncnc3c2oc2ccccc23)CC1
half-life [15]: < 0.0833 h | Ki (Histamine H4 receptor [1]): 0.056 µM

CN1CCN(c2nc(N)nc3c2oc2ncc(Cl)cc23)CC1
Ki (Histamine H4 receptor [1]): 0.033 µM

CNC1CCN(c2nc(N)nc3c2oc2ccc(Cl)cc23)C1 (stereo not drawn)
remaining at […] [2]: 100% | Kb (Histamine H4 receptor [3]): 0.01 µM | solubility [11]: 0.054 µM (≈ 0.0172 µg/mL) | remaining at […] [4]: 100% | Ki (Histamine H4 receptor [1]): 0.0009 µM

CN[C@@H]1CCN(c2nc(N)nc3c2oc2ccc(Br)cc23)C1
Ki (Histamine H4 receptor [1]): 0.0007 µM

Nc1nc(N2CC[C@@H](NCCO)C2)c2oc3ccc(Cl)cc3c2n1
Ki (Histamine H4 receptor [1]): 0.046 µM

CN[C@@H]1CCN(c2nc(N)nc3c2oc2ccc(OC)cc23)C1
Ki (Histamine H4 receptor [1]): 0.011 µM

CN(C)C1CCN(c2ncnc3c2sc2ccccc23)C1 (stereo not drawn)
Ki (Histamine H4 receptor [1]): > 10 µM

Nc1nc(N2CCNCC2)c2oc3ccc(F)c(F)c3c2n1
Ki (Histamine H4 receptor [1]): 0.156 µM

CN[C@@H]1CCN(c2nc(N)nc3c2oc2c(Cl)cc(Cl)cc23)C1
Ki (Histamine H4 receptor [1]): 0.008 µM

C[C@H]1CN(c2nc(N)nc3c2oc2ncc(Cl)cc23)CCN1
Ki (Histamine H4 receptor [1]): 0.885 µM

CN(C)C1CCN(c2ncnc3c2sc2ccccc23)CC1
Ki (Histamine H4 receptor [1]): > 10 µM

CN[C@@H]1CCN(c2nc(N)nc3c2oc2ccc(Cl)cc23)C1
Ki (Histamine H4 receptor [1]): 0.0004 µM

Cc1csc2c(N3CCCN(C)CC3)ncnc12
Ki (Histamine H4 receptor [1]): > 10 µM

CN[C@@H]1CCN(c2nc(N)nc3c2oc2cccc(Cl)c23)C1
Ki (Histamine H4 receptor [1]): 0.04 µM

Nc1nc(N2CCNCC2)c2oc3ccc(Cl)c(Cl)c3c2n1
Ki (Histamine H4 receptor [1]): 0.0077 µM

Nc1nc(N2CCNCC2)c2oc3cccc(Cl)c3c2n1
Ki (Histamine H4 receptor [1]): 1.05 µM

Nc1nc(N2C[C@@H]3C[C@H]2CN3)c2oc3ncc(Cl)cc3c2n1
Ki (Histamine H4 receptor [1]): > 10 µM

CN1CCN(c2ncnc3c2sc2ccccc23)CC1
Ki (Histamine H4 receptor [1]): 0.053 µM

Nc1nc(N2CCC[C@@H](N)C2)c2oc3ccc(Cl)cc3c2n1
Ki (Histamine H4 receptor [1]): 0.0091 µM

CN1CCN(CCCOc2ccc(-c3nc4cc(Cl)ccc4[nH]3)cc2)CC1
Ki (Histamine H4 receptor [1]): 0.12 µM

Nc1nc(N2C[C@H]3C[C@@H]2CN3)c2oc3ccc(Cl)cc3c2n1
Ki (Histamine H4 receptor [1]): 0.104 µM

CNC1CCN(c2ncnc3c2sc2ccccc23)CC1
Ki (Histamine H4 receptor [1]): > 10 µM

Nc1nc(N2CCC[C@H](N)C2)c2oc3ccc(Cl)cc3c2n1
Ki (Histamine H4 receptor [1]): 0.0057 µM

Nc1nc(N2C[C@@H]3C[C@H]2CN3)c2oc3ccc(Cl)cc3c2n1
Ki (Histamine H4 receptor [1]): 0.026 µM

Nc1nc(N2CCNCC2)c2oc3ncc(Cl)cc3c2n1
Ki (Histamine H4 receptor [1]): 0.035 µM

CN1CCN(c2nc(N)nc3c2sc2ccc(Cl)cc23)CC1
Ki (Histamine H4 receptor [1]): 0.0003 µM

Nc1nc(N2CCC[C@H](N)C2)c2oc3ccc(C(F)(F)F)cc3c2n1
Ki (Histamine H4 receptor [1]): 0.042 µM

CN1CCN(c2nc(N)nc3c2oc2ccc(Cl)c(Cl)c23)CC1
Ki (Histamine H4 receptor [1]): 0.0077 µM

Nc1nc(N2CCNCC2)c2oc3cccc(F)c3c2n1
Ki (Histamine H4 receptor [1]): 0.145 µM

CN[C@H]1CCN(c2nc(N)nc3c2oc2ccc(Cl)cc23)C1
Ki (Histamine H4 receptor [1]): 0.002 µM

CN[C@@H]1CCN(c2nc(N)nc3c2oc2ccc(F)cc23)C1
Ki (Histamine H4 receptor [1]): 0.002 µM
